# Measurements reported in patent publication US20240238246A1, “METHODS FOR PREVENTING OR SLOWING THE PROGRESSION OF COGNITIVE DECLINE OR IMPAIRMENT IN SUBJECTS” (AGENEBIO, INC., priority 2023, published 2024).
# Legend:
# [1] = tested on: subjects with MCI due to Alzheimer's disease; test: Phase IIb placebo-controlled 78-week study, Clinical Dementia Rating-Sum of Boxes (CDR-SB); assay type: in vivo, human
# Procedure: (§1) This example describes a phase IIb multicenter, randomized, double-blind, placebo-controlled study evaluating the efficacy and safety of a low-dose levetiracetam, 220 mg, extended-release tablet on slowing progression of MCI due to Alzheimer's disease (prodromal Alzheimer's disease), the results being evaluated using the well-recognized and accepted Clinical Dementia Rating-Sum of Boxes (CDR-SB) scores.
# (§2) Subjects for this study were between 55 and 85 years old (inclusive) in good general health, willing and able to consent and to participate for the duration of the study, having an eighth-grade education or good work history sufficient to exclude mental retardation, having visual and auditory acuity adequate for neuropsychological testing, and having proficient fluency of the native local language to participate in all the neuropsychological test assessments. The clinical assessments of 63 participants were used for the analyses.
# Blood samples were taken from each subject to determine APOE4 carrier status. Genomic DNA was prepared from the blood samples according to standard procedures. Quality of the genomic DNA samples were quantified using Optical Density and DNA purity was calculated. Using extracted genomic DNA as a template, locus specific DNA fragments were amplified by polymerase chain reaction (PCR). Purified PCR products were used as templates for sequencing reactions. According to the chain terminating methodology of Sanger et al (Sanger F, Nicklen S, Coulson A R. DNA sequencing with chain-terminating inhibitors. Proc Natl Acad Sci USA. 1977 December; 74(12):5463-7), analysis of DNA sequence was based on the termination of a growing DNA strand due to incorporation of a dye labeled ddNTP by the DNA polymerase. The resulting dye-labeled product was detected using an automated sequencing platform. Data was analyzed using the software SEQPATIENT from JSI-medical Systems®.
# (§3) The study included up to a 5-week screening period consisting of 3 visits and a 78-week treatment period consisting of 10 visits (1 baseline visit, 3 telephone call visits, and 6 clinic visits). The primary endpoint of the study was the analysis of the change in CDR-SB score from baseline to 78 weeks. Secondary endpoints included the analysis of the change in Functional Activities Questionnaire (FAQ) score from baseline to 78 weeks. Subjects received a low-dose levetiracetam, 220 mg, extended-release tablet or placebo in the morning in identically appearing extended release, one unit oral dosage forms.
# CDR-SB testing was performed using standard methods. Briefly, subjects were tested using the following six categories or “boxes”: Memory, Orientation, Judgment and Problem Solving, Community Affairs, Home and Hobbies, and Personal Care. CDR-SB scores were calculated by adding the box scores. The total score ranges from 0 to 18 with a higher scores indicating more impairment). Absolute values and changes from baseline in CDR-SB were summarized using descriptive statistics and presented by APOE4 non-carrier status. Table 3 summarizes the statistical analysis wherein each cell contains a point estimate followed by a 95% Confidence Interval (CI).
# [2] = tested on: subjects with MCI due to Alzheimer's disease; test: Phase IIb placebo-controlled 78-week study, Functional Activities Questionnaire (FAQ) score; assay type: in vivo, human
# Procedure: as §1, §2, §3
# FAQ scores were obtained to measure the functional ability of individuals over time. Briefly, FAQ measures instrumental activities of daily life, such as preparing meals and balancing a check book as these functional changes are found earlier in the dementia process compared to more basic activities. The Questionnaire comprises 10 questions which are answered using a 0-3 scoring system for each question with 0 being normal and 3 being dependent on someone else to complete the task. […]
# [3] = tested on: entorhinal cortex (ERC) and Brodmann area 35 (BA35) volume in APOE-4 non-carriers; test: Volumetric MRI of medial temporal lobe subregions (ASHS-T1 segmentation) in the phase IIb study; assay type: in vivo, human; conditions: APOE-4 non-carriers (n=26), baseline to week 78
# From the text: Brain regions of interest were selected prior to the trial apriori based on the location of post-mortem tau accumulation in the early stage of AD (Braak et al., Acta Neuropathologica, 112(4): 389-404 (2006); Braak & Braak, Acta Neuropathologica, 80(5): 479-486 (1990)) and robust atrophy in entorhinal cortex volume in the AD. For this purpose, the Automated Segmentation of Hippocampal Subfields (ASHS) software (Xie et al., Hum Brain Mapp. 40:3431-3451 (2019)) was used. Regions provided by this software include the left and right entorhinal cortex (ERC), Brodmann area 35 (BA35), which largely overlaps with TEC (Braak et al., Acta Neuropathologica, 112(4): 389-404 (2006); Braak & Braak, Acta Neuropathologica, 80(5): 479-486 (1990))) and includes a portion of the perirhinal cortex and BA36, which predominantly encompasses the perirhinal cortex (Xie et al., 2019). High-resolution T1-weighted MRI images of the subjects' brain were collected at baseline and 78 weeks using an MRI scanner. Automatic segmentation was performed using the T1-weighted MRI images using the ASHS-T1 open-source software and see, also Xie et al., Hum Brain Mapp. 40:3431-3451 (2019). […] Volumetric and thickness measurements of the ERC and BA35 were extracted for each subject. […]
# [4] = cited from earlier work
# [5] = APOE-4 non-carrier subgroup (n=26)
structure (smiles),measurement,setting,value
"CC[C@@H](C(N)=O)N1CCCC1=O [levetiracetam, (2S)-2-(2-oxopyrrolidin-1-yl)butanamide]","CDR-SB Treatment Effect (Difference) versus placebo (point estimate, 95% CI)","[1]; APOE4 non-carriers (n = 63), 78 weeks","−0.56 (CI: −1.90, 0.47)"
same,"CDR-SB change score (point estimate, 95% CI)","[1]; APOE4 non-carriers (n = 63), baseline to 78 weeks, 220 mg extended-release tablet","0.96 (CI: 0.08, 2.01)"
same,Mean CDR-SB change score at Week 78,[1]; APOE-4 carrier subgroup (n=54),0.95
same,Estimated average treatment effect on CDR-SB change score,"[1]; APOE-4 carrier subgroup, Week 78, versus placebo",−0.10
same,Mean CDR-SB change from baseline at Week 78,[1]; [5],0.68
same,Estimated average treatment effect on CDR-SB change score,"[1]; APOE-4 non-carrier subgroup, Week 78, versus placebo",−0.45
same,Mean CDR-SB change score at Week 78,[1]; entire study population,1.12
same,Estimated average treatment effect on CDR-SB change score,"[1]; entire study population, Week 78, versus placebo (p=0.71)",−0.10
same,Mean FAQ total score change from baseline to week 78,[2]; APOE-4 carrier subgroup (n=54),5
same,Mean FAQ total score change from baseline to week 78,[2]; [5],1.8
same,Estimated mean FAQ score from baseline at 78 weeks (95% CI),[2]; entire study population,"3.82 (95% CI: 2.10, 5.17)"
same,Left ERC mean volume change,[3]; p=0.048 vs placebo,−1.878%
same,Right BA35 mean volume change,[3]; p=0.094 vs placebo,−0.789%
same,Time of peak plasma concentrations,[4]; following oral administration,about 1 hour
same,Plasma half-life,[4]; in vivo,approximately 7±1 hour
same,Time to achieve steady state,[4]; multiple twice-daily dosing,2 days
same,Absorption after oral administration,[4]; oral administration,rapidly and almost completely absorbed
same,Effect of food on bioavailability,[4]; oral administration,not affected by food
